Experimental data published in publication PMC8311463, “Cyclotides Isolated From Violet Plants of Cameroon Are Inhibitors of Human Prolyl Oligopeptidase” (Frontiers in Pharmacology, 2021).
Values belong to the molecule of their own block, whether it stands above or below them. Bridge positions count the residues as written; N and C are the ends. Peptide text beside a SMILES is read from it. * marks the point of attachment. AMC = Cc1cc(=O)oc2cc(N*)ccc12; Cbz = O=C(OCc1ccccc1)*

What was measured:
[1] = test system: POP; set-up: method as in 3 sources, ref Hellinger et al., 2015a ||| ref Tarrago et al., 2007; Tarragó et al., 2008; Cahlíková et al., 2015 ||| ref Retzl et al., 2020; details: cited from earlier work; for POP inhibition (in words): alkaloids and flavonoids, ref Tarrago et al., 2007, Tarragó et al., 2008, Cahlíková et al., 2015
Protocol: Previous phytochemical studies identified natural products as inhibitors for POP such as small molecule entities and natural peptides. […] A sequence logo was prepared to compare the amino acid positions for conserved residues or to identify variable positions (Figure 7C).

[2] = target: T1, human POP (Homo sapiens, UniProt P48147); experiment: POP enzyme kinetics (Michaelis-Menten) with Z-Gly-Pro-amino-coumarin; assay type: biochemical; details: substrate Z-Gly-Pro-amino-coumarin, optimized assay buffer 20 mM Hepes pH 7.2, 150 mM NaCl, 1 mM EDTA, 0.5 mM DTT
T1 construct: the full-length untagged protein was obtained after site-specific cleavage; GST (N, cleaved yes); made in house; host or cells: Escherichia coli BL21 (D3 [sic] strain)
T1 sequence (P48147 1-710): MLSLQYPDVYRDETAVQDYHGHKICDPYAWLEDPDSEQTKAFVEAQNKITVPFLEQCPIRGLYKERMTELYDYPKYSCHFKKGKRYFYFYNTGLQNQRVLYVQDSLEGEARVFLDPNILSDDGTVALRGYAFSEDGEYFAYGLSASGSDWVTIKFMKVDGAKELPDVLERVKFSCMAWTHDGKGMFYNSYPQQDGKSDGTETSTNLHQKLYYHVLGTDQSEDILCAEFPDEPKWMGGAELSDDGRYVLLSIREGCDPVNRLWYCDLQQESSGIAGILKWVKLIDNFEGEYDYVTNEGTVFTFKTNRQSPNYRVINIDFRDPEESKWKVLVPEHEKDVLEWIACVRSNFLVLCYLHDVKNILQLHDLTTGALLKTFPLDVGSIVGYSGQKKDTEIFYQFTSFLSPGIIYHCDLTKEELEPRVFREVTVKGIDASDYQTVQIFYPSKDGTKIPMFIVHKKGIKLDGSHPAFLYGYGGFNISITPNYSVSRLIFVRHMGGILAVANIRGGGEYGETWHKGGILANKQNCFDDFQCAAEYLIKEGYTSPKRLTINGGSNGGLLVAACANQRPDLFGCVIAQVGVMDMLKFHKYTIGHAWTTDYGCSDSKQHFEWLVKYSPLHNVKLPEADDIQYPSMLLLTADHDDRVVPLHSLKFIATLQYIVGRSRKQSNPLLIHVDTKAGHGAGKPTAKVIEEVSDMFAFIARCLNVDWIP
Protocol: The POP inhibition assays were carried out similarly as recently described ([Hellinger et al., 2015a]; [Retzl et al., 2020]) using a bacterial expressed POP enzyme. Human POP cDNA (accession NM:002726.4) was inserted into a pGEX-6P1 expression vector using the EcoRI and XhoI sites (Genescript, Leiden, Netherlands) and expressed in Escherichia coli (BL21 D3 strain). Protein expression was induced by addition of 0.3–0.5 mM isopropyl-β-D-thiogalactopyranoside (ProteinArk, Rotterdam, Netherlands) at an optical density (OD600) between 0.6 and 0.8 to the bacterial culture and incubated at 25°C under constant shaking. The protein was harvested at an OD600 between 1.4 and 1.5. POP was purified via GST-affinity capture beads. […] The protein concentration was determined with bicinchoninic acid assay (ThermoFisher). […] The protease activity was quantified as fluorescence from the proteolytically cleaved amino-coumarin fluorophore with excitation 380 nm and emission 420 nm on a Biotek Synergy H4 plate reader. The fluorogenic substrate provide elevated fluorescence by the delocalization of electrons after the amide bond cleavage and release of the 7 amino coumarin moiety. […] The percent remaining POP activity was calculated as I = (vi/vo)*100. […]

[3] = Precipitation of the substrate in POP assay; assay type: physicochemical; details: optimized POP assay conditions, tested between 0.766 µM and 300 µM
Protocol: Supplementary Figure S3. POP purification and optimization of the assay system.Human POP wa s expressed in E. coliand purified as functional protease. The purification steps were analyzed using a Coomassie stained protein gel. Purifi ed POP enzyme is shown in lane 7 after site-specific cleavage with PreS cissi on protease and rel ease of the untagg ed protein (A). Different assay conditions were tested to study the effect of buffer sy stems and pH dependency (B,C), the use of organi c solve nts (D), DTT (E) and NaCl (F) concentration on POP enzyme activ ity. For calculation of POP activ ity the slope in the li near range between 5 and 35 mi n of kinetic measurements were used. With the optim ized conditionsZ-Gly-Pro-amino-coumarin concentrations between 0.766 µM and 300 µM were tested in a kinetic measurement and a con centration dependent increase in sig nal was observed. Above 150 µM substrate concentration no further increase in sig nal was measured due to preci pitation of the substra te (G). Al l data are shown as mean of three biologi cal experim ents and error is shown as ±SEM.
(1 picture or pasted object on this page, not shown here)

[4] = target: T1, human POP; experiment: POP inhibition assay, Z-Gly-Pro-amino-coumarin substrate; assay type: biochemical
Protocol: The POP inhibition assays were carried out similarly as recently described ([Hellinger et al., 2015a]; [Retzl et al., 2020]) using a bacterial expressed POP enzyme. […] For enzyme inhibition assays human POP (50 ng/well) was incubated in assay buffer (20 mM Hepes pH 7.2, 150 mM NaCl, 1 mM EDTA, 0.5 mM DTT) together with substrate Z-Gly-Pro-amino-coumarin (final concentration 45 µM) at 37°C for 60 min. […] All experiments were performed in 96-microtiter black bottom plates. Concentration-response inhibition assays were performed with [S] = K m, which is considered a suitable condition for evaluating samples of unknown inhibition mode (e.g. competitive, noncompetitive or uncompetitive reversible inhibition). The protease activity was quantified as fluorescence from the proteolytically cleaved amino-coumarin fluorophore with excitation 380 nm and emission 420 nm on a Biotek Synergy H4 plate reader. The fluorogenic substrate provide elevated fluorescence by the delocalization of electrons after the amide bond cleavage and release of the 7 amino coumarin moiety. All samples for protease inhibition assays were prepared in ddH2O. Concentration-dependent inhibition studies were performed with the peptide enriched extracts (2–1,000 μg/ml) or isolated peptides (0.1–60 µM). For bioassay-guided isolation HPLC fractions were assayed for POP inhibition with three concentrations (4, 20 and 100 μg/ml). Kinetic measurements were carried out to obtain initial velocities in the presence of sample (vi) or enzyme alone (vo) ([Arnison et al., 2013]). The percent remaining POP activity was calculated as I = (vi/vo)*100. A substrate background was used for correction of all measurements. KYP-2047, a specific POP inhibitor, was used as positive control in the assays. […] Four parameter non-linear regression curve fits were obtained using GraphPad Prism v5.0 fitting algorithms with equation Y=Bottom + (Top-Bottom)/(1 + 10^((LogIC50-X)*Hill Slope)) in which X is the log dose and Y the measured response.

[5] = test system: POP; details: clinical phase 1 and 2; ref López et al., 2013; cited from earlier work
Source text: Ethnomedicinal studies have shown beneficial effects of cyclotide expressing plants in few disease conditions with relationship to POP. For instance, African traditional medicine describes the therapeutic application of Rinorea dentata (P. Beauv.) Kuntze from the Violaceae toward neurodegenerative diseases ([Sonibare and Ayoola, 2015]). […] To make use of these beneficial effects it will be necessary to further investigate P ...

Molecule: C[N+]1(C)[C@H]2Cc3cc4c(cc3[C@@H]1Cc1cc3c(cc12)COC3)OCO4 [californidine]
- POP inhibition (in words) [1]: inhibit POP activity

Molecule: O=c1cc(-c2ccccc2)oc2cc(O)c(O)c(O)c12 [balcalein]
- POP inhibition (in words) [1]: inhibit POP activity

- K m [2]: 42.4 µM
- Vmax [2]: 0.00015 µmol/min
- substrate concentration above which precipitation of the substrate occurs [3]: Above 150 µM
Molecule: Cc1cc(=O)oc2cc(NC(=O)[C@@H]3CCCN3C(=O)CNC(=O)OCc3ccccc3)ccc12 [Z-Gly-Pro-amino-coumarin] (Cbz-Gly-Pro-{AMC})

Molecule: kalata B1: cyclotide, amongst others in V. tricolor L., Moebius type (cyclo(GLPVCGETCVGGTCNTPGCTCSWPVCTRN); disulfide 14-26, 5-19, 9-21; UniProt P56254 89-117, looked up)
- IC50 ([1]; POP, ref Hellinger et al., 2015a, read-out: half maximal inhibitory concentration (IC50)): 5.6 µM

Molecule: COc1ccc2cc3[n+](cc2c1OC)CCc1cc2c(cc1-3)OCO2 [berberine]
- POP inhibition (in words) [1]: inhibit POP activity

Molecule: CC[C@H](C)[C@@H]1NC(=O)[C@H](C)NC(=O)[C@H](C)NC(=O)[C@H](CO)NC(=O)[C@H]([C@@H](C)CC)NC(=O)[C@@H]2CSSC[C@@H]3NC(=O)[C@H](C(C)C)NC(=O)[C@H](CCCCN)NC(=O)[C@H](CC(N)=O)NC(=O)[C@H](CCCCN)NC(=O)[C@@H]4CSSC[C@H](NC(=O)[C@H](CO)NC(=O)[C@H](CCC(=O)O)NC(=O)CNC(=O)[C@H](CSSC[C@H](NC(=O)CNC1=O)C(=O)N[C@@H](CO)C(=O)N4)NC(=O)[C@@H]1CCCN1C(=O)[C@H]([C@@H](C)CC)NC(=O)[C@H](C(C)C)NC(=O)CNC(=O)[C@H](CC(=O)O)NC(=O)[C@H](CCCNC(=N)N)NC(=O)[C@H](Cc1ccc(O)cc1)NC3=O)C(=O)N[C@@H](C(C)C)C(=O)N[C@@H](Cc1ccccc1)C(=O)N[C@@H]([C@@H](C)CC)C(=O)N1CCC[C@H]1C(=O)N2 [alca 1] (cyclo(AAIGCSCKNKVCYRDGVIPCGESCVFIPCIS); disulfide 5-20, 7-24, 12-29)
- IC50 [4]: 8.5 ± 5.9 µM
- Hill slope ([4]; sigmoidal inhibition curves of isolated peptides, four parameter non-linear regression, mean ± standard deviation, three or five biological experiments, respectively (alca 1, alca 2)): −1.2 ± 0.1

Molecule: CC[C@H](C)[C@@H]1NC(=O)[C@@H]2CSSC[C@@H]3NC(=O)[C@H](C(C)C)NC(=O)[C@H](CCCCN)NC(=O)[C@H](CC(N)=O)NC(=O)[C@H](CO)NC(=O)[C@@H]4CSSC[C@H](NC(=O)[C@H](CO)NC(=O)[C@H](CCC(=O)O)NC(=O)CNC(=O)[C@H](CSSC[C@H](NC(=O)CNC(=O)[C@H](CC(C)C)NC(=O)[C@H](C(C)C)NC(=O)CNC(=O)[C@H](CO)NC1=O)C(=O)N[C@@H](CO)C(=O)N4)NC(=O)[C@@H]1CCCN1C(=O)[C@H]([C@@H](C)CC)NC(=O)CNC(=O)[C@H](CC(N)=O)NC(=O)[C@H](CCCNC(=N)N)NC(=O)[C@H](Cc1ccc(O)cc1)NC3=O)C(=O)N[C@@H](C(C)C)C(=O)N[C@@H](Cc1ccccc1)C(=O)N[C@@H]([C@@H](C)CC)C(=O)N1CCC[C@H]1C(=O)N2 [alca 2] (cyclo(CGESCVFIPCISGVLGCSCSNKVCYRNGIP); disulfide 1-17, 5-19, 10-24)
- IC50 [4]: 4.4 ± 0.7 µM

Molecule: O=C(CO)[C@@H]1CCCN1C(=O)[C@@H]1CCCN1C(=O)NCc1ccccc1 [JTP-4819]
- clinical outcome (in words) [5]: failed to succeed or provided ambiguous outcomes in their clinical phase
